Assay results from patent publication US20240391928A1, “COMPOSITIONS FOR THE TREATMENT OF FOOD AND CHEMICAL ADDICTION AND METHODS OF MAKING AND USING SAME” (Duke University, priority 2021, published 2024).

Molecular target: hGHSR1a^WT (Homo sapiens, UniProt Q92847)
Test: Gαq-dependent intracellular Ca2+ mobilization (iCa2+, miAeq)
Type: cell-based
Design: HEK293/T (transient); HEK293S Gαq knockout (transient, NanoBiT Gαq)
Conditions: secondary assay of HTS hits; normalized to L585
Method: Gαq-Dependent Intracellular Ca^2+ Mobilization. […] Cells were split into and seeded into 10 cm dishes without antibiotic selection and grown to confluency overnight. The next morning, cells were serum starved in 10 mL of clear opti-MEM (supplemented with L-glutamine and HEPES; Gibco, Waltham, MA) for 3-4 hours in a 37° C. incubator with 5% CO2. Then, 25 μL of coelenterazine H (NanoLight Technology, Pinetop, AZ) was added to each 10 mL dish and incubated for another 1-2 hours. For antagonist assays, test compounds were either added directly to the media in 10 cm dishes, or cells were collected by gentle washing/trituration and plated onto white, clear-bottomed 96-well plates for 30 minutes—1 hour. Once the coelenterazine H (or antagonist) incubation was complete, cells were harvested from the 10 cm dish by gentle washing/trituration and collected in a 15 mL conical tube. Cell suspensions were then immediately subjected to assay by injecting cells onto a white, clear-bottomed 96-well plate containing 2× test compounds. Luminescence was read without delay and for 10 seconds per well. To control for cell number variability, cells were lysed in 2× lysis buffer (100 mM CaCl2+0.2% Triton-X) immediately following the assay. The max ligand-induced response (Ca^2+ mobilization: net-miAeq) over 10 seconds was normalized by dividing the ligand-induced luminescence counts (L-miAeq) by the ligand-induced luminescence counts (L-MiAeq) plus the luminescence measured upon cell lysis (Lysis-miAeq). Relative, lysis-normalized data were then normalized to the appropriate control/reference condition.
For experiments with WT and Gt KO HEK293/S cells, […] of hGHSR1a^WT, 10 μg of miAEQ, and 2.5 μg of pcDNA3.1 was transiently transfected into 10 cm dishes and incubated overnight. […] Twenty-four hours later, experiments proceeded in accordance with the procedures described above. To control for any possible kinetic differences in genetically modified cell lines or GHSR1a variants, the average ligand-induced response over 10 seconds was calculated, then normalized by dividing the L-miAeq by the L-miAeq plus the Lysis-miAeq and normalized to the appropriate control/reference condition.

Chain of hGHSR1a^WT (Q92847 whole entry): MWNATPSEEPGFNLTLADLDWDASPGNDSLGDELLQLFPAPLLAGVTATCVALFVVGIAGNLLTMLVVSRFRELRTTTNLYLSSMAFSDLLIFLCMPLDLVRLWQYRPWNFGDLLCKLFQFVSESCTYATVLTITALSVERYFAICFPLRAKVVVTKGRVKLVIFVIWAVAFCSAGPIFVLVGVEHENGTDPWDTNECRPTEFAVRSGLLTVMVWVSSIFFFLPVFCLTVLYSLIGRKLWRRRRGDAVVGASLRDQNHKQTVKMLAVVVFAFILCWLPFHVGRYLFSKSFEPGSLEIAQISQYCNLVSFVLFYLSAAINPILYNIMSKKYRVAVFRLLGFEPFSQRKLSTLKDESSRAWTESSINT

Row | SMILES | Calcium signaling ECmax (%)
1 | O=C1c2oc3ccccc3c(=O)c2C(c2ccccc2F)N1Cc1ccc2c(c1)OCO2 (stereo not shown) [NCGC00101942] | 57%
2 | CCCOc1ccc(C2c3c(oc4ccccc4c3=O)C(=O)N2c2ccc(C)cn2)cc1OCC (stereo not shown) [NCGC00101673] | 115%
3 | CC(C)CCOc1cccc(C2c3c(oc4ccccc4c3=O)C(=O)N2CCCN2CCOCC2)c1 (stereo not shown) [MLS000115603] | 48%
4 | CCOc1ccc(C2c3c(oc4ccc(C)cc4c3=O)C(=O)N2CCCN(C)C)cc1 (stereo not shown) [NCGC00141058] | 97%
5 | COc1ccc(C2c3c(oc4ccc(F)cc4c3=O)C(=O)N2Cc2ccc3c(c2)OCO3)cc1 (stereo not shown) [NCGC00101634] | 61%
6 | CCOc1cccc(C2c3c(oc4ccc(F)cc4c3=O)C(=O)N2CCOC)c1 (stereo not shown) [NCGC00101945] | 63%
7 | CCCOc1cccc(C2c3c(oc4cc(C)c(C)cc4c3=O)C(=O)N2CCCN2CCOCC2)c1 (stereo not shown) [NCGC00101917] | 39%
8 | CCCCOCCCn1c(N)c(C(=O)OC(C)COC)c2nc3ccccc3nc21 (stereo not shown) [MLS000036469] | 50%

Same assay, conditions: secondary assay of HTS hits; read-out: Calcium signaling EC50

Row | SMILES | EC50
9 | COc1cccc(C2c3c(oc4ccc(C)cc4c3=O)C(=O)N2CCCN2CCOCC2)c1OC (stereo not shown) [NCGC00136166] | ~296 µM
10 | CCCCOc1ccc(C2c3c(oc4ccc(C)cc4c3=O)C(=O)N2CCCN(C)C)cc1OCC (stereo not shown) [NCGC00101941] | ~26900 µM
11 | O=C1c2oc3ccc(F)cc3c(=O)c2C(c2cccc([N+](=O)[O-])c2)N1CCCN1CCOCC1 (stereo not shown) [NCGC00119778] | ~62000 µM
12 | Cc1cc(C)c2c(=O)c3c(oc2c1)C(=O)N(Cc1ccco1)C3c1ccc(F)cc1 (stereo not shown) [NCGC00116418] | ~3010 µM
13 | Cc1ccc2oc3c(c(=O)c2c1)C(c1cccc(O)c1)N(CCCN1CCOCC1)C3=O (stereo not shown) [NCGC00101913] | ~18000 µM
14 | CCCOc1cccc(C2c3c(oc4ccc(F)cc4c3=O)C(=O)N2CCCN2CCOCC2)c1 (stereo not shown) [NCGC00101919] | ~1520 µM
15 | CCOc1cc(C2c3c(oc4ccccc4c3=O)C(=O)N2Cc2ccc(OC)cc2)ccc1O (stereo not shown) [NCGC00101920] | ~18500 µM
16 | Cc1ccc2oc3c(c(=O)c2c1)C(c1ccc(O)cc1)N(Cc1ccc2c(c1)OCO2)C3=O (stereo not shown) [NCGC00101948] | ~11200 µM
17 | CCCOc1ccc(C2c3c(oc4ccccc4c3=O)C(=O)N2c2ccc(C)cn2)cc1OCC (stereo not shown) [NCGC00101673] | 32.4 µM
18 | CC(C)CCOc1cccc(C2c3c(oc4ccccc4c3=O)C(=O)N2CCCN2CCOCC2)c1 (stereo not shown) [MLS000115603] | 0.00681 µM
19 | CCOc1ccc(C2c3c(oc4ccc(C)cc4c3=O)C(=O)N2CCCN(C)C)cc1 (stereo not shown) [NCGC00141058] | 1.29 µM
20 | COc1ccc(C2c3c(oc4ccc(F)cc4c3=O)C(=O)N2Cc2ccc3c(c2)OCO3)cc1 (stereo not shown) [NCGC00101634] | 7.71 µM
21 | CCOc1cccc(C2c3c(oc4ccc(F)cc4c3=O)C(=O)N2CCOC)c1 (stereo not shown) [NCGC00101945] | 1.2 µM
22 | C=CCOc1ccc(C2c3c(oc4ccc(C)cc4c3=O)C(=O)N2CCCN2CCOCC2)cc1 (stereo not shown) [NCGC00101909] | ~3020 µM
23 | COc1cc(C2c3c(oc4cc(C)c(C)cc4c3=O)C(=O)N2CCCN2CCOCC2)ccc1O (stereo not shown) [NCGC00101915] | ~19200 µM
24 | CCCOc1cccc(C2c3c(oc4cc(C)c(C)cc4c3=O)C(=O)N2CCCN2CCOCC2)c1 (stereo not shown) [NCGC00101917] | 0.0043 µM
25 | CCCCOCCCn1c(N)c(C(=O)OC(C)COC)c2nc3ccccc3nc21 (stereo not shown) [MLS000036469] | 0.00306 µM

System: human hGHSR1a-vasopressin receptor 2 tail chimera
Test: β-arr2^GFP translocation, compound screening (U2OS)
Type: cell-based
Conditions: secondary assay of HTS hits; normalized to L585

Row | SMILES | Beta-arrestin translocation ECmax (%)
26 | COc1cccc(C2c3c(oc4ccc(C)cc4c3=O)C(=O)N2CCCN2CCOCC2)c1OC (stereo not shown) [NCGC00136166] | 11%
27 | CCCCOc1ccc(C2c3c(oc4ccc(C)cc4c3=O)C(=O)N2CCCN(C)C)cc1OCC (stereo not shown) [NCGC00101941] | 83%
28 | Cc1ccc2oc3c(c(=O)c2c1)C(c1cccc(O)c1)N(CCCN1CCOCC1)C3=O (stereo not shown) [NCGC00101913] | 153%
29 | CCCOc1cccc(C2c3c(oc4ccc(F)cc4c3=O)C(=O)N2CCCN2CCOCC2)c1 (stereo not shown) [NCGC00101919] | 99%
30 | CCOc1cc(C2c3c(oc4ccccc4c3=O)C(=O)N2Cc2ccc(OC)cc2)ccc1O (stereo not shown) [NCGC00101920] | 9%
31 | O=C1c2oc3ccccc3c(=O)c2C(c2ccccc2F)N1Cc1ccc2c(c1)OCO2 (stereo not shown) [NCGC00101942] | 12%
32 | CCCOc1ccc(C2c3c(oc4ccccc4c3=O)C(=O)N2c2ccc(C)cn2)cc1OCC (stereo not shown) [NCGC00101673] | 49%
33 | CCOc1ccc(C2c3c(oc4ccc(C)cc4c3=O)C(=O)N2CCCN(C)C)cc1 (stereo not shown) [NCGC00141058] | 142%
34 | COc1ccc(C2c3c(oc4ccc(F)cc4c3=O)C(=O)N2Cc2ccc3c(c2)OCO3)cc1 (stereo not shown) [NCGC00101634] | 10%
35 | CCOc1cccc(C2c3c(oc4ccc(F)cc4c3=O)C(=O)N2CCOC)c1 (stereo not shown) [NCGC00101945] | 7%
36 | C=CCOc1ccc(C2c3c(oc4ccc(C)cc4c3=O)C(=O)N2CCCN2CCOCC2)cc1 (stereo not shown) [NCGC00101909] | 64%
37 | CCCOc1ccc(C2c3c(oc4cc(C)c(C)cc4c3=O)C(=O)N2CCCN2CCOCC2)cc1 (stereo not shown) [MLS000115606] | 24%
38 | COc1cc(C2c3c(oc4cc(C)c(C)cc4c3=O)C(=O)N2CCCN2CCOCC2)ccc1O (stereo not shown) [NCGC00101915] | 368%
39 | CCCOc1cccc(C2c3c(oc4cc(C)c(C)cc4c3=O)C(=O)N2CCCN2CCOCC2)c1 (stereo not shown) [NCGC00101917] | 20%

Same assay, conditions: secondary assay of HTS hits; read-out: Beta-arrestin translocation EC50

Row | SMILES | EC50
40 | COc1cccc(C2c3c(oc4ccc(C)cc4c3=O)C(=O)N2CCCN2CCOCC2)c1OC (stereo not shown) [NCGC00136166] | 0.0716 µM
41 | CCCCOc1ccc(C2c3c(oc4ccc(C)cc4c3=O)C(=O)N2CCCN(C)C)cc1OCC (stereo not shown) [NCGC00101941] | 0.095 µM
42 | Cc1ccc2oc3c(c(=O)c2c1)C(c1cccc(O)c1)N(CCCN1CCOCC1)C3=O (stereo not shown) [NCGC00101913] | 1.55 µM
43 | CCCOc1cccc(C2c3c(oc4ccc(F)cc4c3=O)C(=O)N2CCCN2CCOCC2)c1 (stereo not shown) [NCGC00101919] | 1.74 µM
44 | CCOc1cc(C2c3c(oc4ccccc4c3=O)C(=O)N2Cc2ccc(OC)cc2)ccc1O (stereo not shown) [NCGC00101920] | 0.0165 µM
45 | O=C1c2oc3ccccc3c(=O)c2C(c2ccccc2F)N1Cc1ccc2c(c1)OCO2 (stereo not shown) [NCGC00101942] | 0.528 µM
46 | CCCOc1ccc(C2c3c(oc4ccccc4c3=O)C(=O)N2c2ccc(C)cn2)cc1OCC (stereo not shown) [NCGC00101673] | 2.4 µM
47 | CC(C)CCOc1cccc(C2c3c(oc4ccccc4c3=O)C(=O)N2CCCN2CCOCC2)c1 (stereo not shown) [MLS000115603] | ~4690 µM
48 | CCOc1ccc(C2c3c(oc4ccc(C)cc4c3=O)C(=O)N2CCCN(C)C)cc1 (stereo not shown) [NCGC00141058] | 2.03 µM
49 | COc1ccc(C2c3c(oc4ccc(F)cc4c3=O)C(=O)N2Cc2ccc3c(c2)OCO3)cc1 (stereo not shown) [NCGC00101634] | 0.426 µM
50 | CCOc1cccc(C2c3c(oc4ccc(F)cc4c3=O)C(=O)N2CCOC)c1 (stereo not shown) [NCGC00101945] | 2 µM
51 | C=CCOc1ccc(C2c3c(oc4ccc(C)cc4c3=O)C(=O)N2CCCN2CCOCC2)cc1 (stereo not shown) [NCGC00101909] | 0.254 µM
52 | CCCOc1ccc(C2c3c(oc4cc(C)c(C)cc4c3=O)C(=O)N2CCCN2CCOCC2)cc1 (stereo not shown) [MLS000115606] | 0.0312 µM
53 | COc1cc(C2c3c(oc4cc(C)c(C)cc4c3=O)C(=O)N2CCCN2CCOCC2)ccc1O (stereo not shown) [NCGC00101915] | 13.6 µM
54 | CCCOc1cccc(C2c3c(oc4cc(C)c(C)cc4c3=O)C(=O)N2CCCN2CCOCC2)c1 (stereo not shown) [NCGC00101917] | 0.00424 µM
55 | CCCCOCCCn1c(N)c(C(=O)OC(C)COC)c2nc3ccccc3nc21 (stereo not shown) [MLS000036469] | 147 µM
